Laboratory results taken from the NIST ThermoML archive (doi:10.1021/je500380x).
Numbers after ± are expanded uncertainties.

How the values were obtained:
[1] = mn = molality of the nth substance listed, in mol/kg; conditions: 100 kPa, Liquid, m2 = 0; for viscosity: Falling or rolling sphere viscometry; for mass density: Vibrating tube method
[2] = 298.15 K, 101.33 kPa, Liquid; for viscosity: Falling or rolling sphere viscometry; for mass density: Vibrating tube method

| SMILES | viscosity ([1]; 293.15 K) | mass density ([1]; 293.15 K) | viscosity ([1]; 298.15 K) | mass density ([1]; 298.15 K) | viscosity ([1]; 303.15 K) | mass density ([1]; 303.15 K) | viscosity ([1]; 308.15 K) | mass density ([1]; 308.15 K) | viscosity ([1]; 313.15 K) | mass density ([1]; 313.15 K) | viscosity ([1]; 318.15 K) | mass density ([1]; 318.15 K) | viscosity ([1]; 323.15 K) | mass density ([1]; 323.15 K) | viscosity [2] | mass density [2] |
| --- | --- | --- | --- | --- | --- | --- | --- | --- | --- | --- | --- | --- | --- | --- | --- | --- |
| CO [methanol] + CCC(=O)OCCN1CCNCC1 | 0.595 ± 0.007 mPa·s | 791.38 ± 0.15 kg/m3 | 0.559 ± 0.007 mPa·s | 786.67 ± 0.15 kg/m3 | 0.527 ± 0.007 mPa·s | 781.95 ± 0.15 kg/m3 | 0.498 ± 0.006 mPa·s | 777.2 ± 0.16 kg/m3 | 0.471 ± 0.006 mPa·s | 772.43 ± 0.16 kg/m3 | 0.448 ± 0.006 mPa·s | 767.62 ± 0.16 kg/m3 | 0.428 ± 0.005 mPa·s | 762.77 ± 0.16 kg/m3 | – | – |
| CO [methanol] | – | – | – | – | – | – | – | – | – | – | – | – | – | – | 0.559 ± 0.011 mPa·s | 786.671 ± 0.13 kg/m3 |
| CCO [ethanol] | – | – | – | – | – | – | – | – | – | – | – | – | – | – | 1.083 ± 0.013 mPa·s | 785.339 ± 0.13 kg/m3 |

Other lines, results leading:

| viscosity ([1]; 293.15 K) | mass density ([1]; 293.15 K) | viscosity ([1]; 298.15 K) | mass density ([1]; 298.15 K) | viscosity ([1]; 303.15 K) | mass density ([1]; 303.15 K) | viscosity ([1]; 308.15 K) | mass density ([1]; 308.15 K) | viscosity ([1]; 313.15 K) | mass density ([1]; 313.15 K) | viscosity ([1]; 318.15 K) | mass density ([1]; 318.15 K) | viscosity ([1]; 323.15 K) | mass density ([1]; 323.15 K) | viscosity [2] | mass density [2] | SMILES |
| --- | --- | --- | --- | --- | --- | --- | --- | --- | --- | --- | --- | --- | --- | --- | --- | --- |
| 1.189 ± 0.015 mPa·s | 789.64 ± 0.15 kg/m3 | 1.083 ± 0.013 mPa·s | 785.34 ± 0.15 kg/m3 | 0.989 ± 0.012 mPa·s | 781.03 ± 0.15 kg/m3 | 0.905 ± 0.011 mPa·s | 776.68 ± 0.16 kg/m3 | 0.831 ± 0.01 mPa·s | 772.29 ± 0.16 kg/m3 | 0.765 ± 0.009 mPa·s | 767.86 ± 0.16 kg/m3 | 0.706 ± 0.009 mPa·s | 763.38 ± 0.16 kg/m3 | – | – | CCO [ethanol] + CCC(=O)OCCN1CCNCC1 |
| – | – | – | – | – | – | – | – | – | – | – | – | – | – | 0.887 ± 0.012 mPa·s | – | O [water] |
| 0.994 ± 0.012 mPa·s | – | 0.887 ± 0.011 mPa·s | – | 0.799 ± 0.01 mPa·s | – | 0.726 ± 0.009 mPa·s | 994.07 ± 0.11 kg/m3 | 0.665 ± 0.008 mPa·s | – | 0.614 ± 0.008 mPa·s | – | 0.567 ± 0.007 mPa·s | – | – | – | O [water] + CCC(=O)OCCN1CCNCC1 |
